# Active and inactive are the calls of the source.
# Columns and labels:
# Exodeoxyribonuclease V = Exodeoxyribonuclease V (Escherichia coli (strain K12), UniProt P04993+P07648+P08394); assay: E. coli RecBCD inhibitors, dose response, counter-screen for AddAB inhibitor project, absorbance, V66 E. coli, mutant T4 phage (AID 492957); type: functional, cell-based, Escherichia coli str. K-12 substr. MG1655
# [1] = Counterscreen for AddAB inhibitors: absorbance-based bacterial cell-based high throughput dose response assay for inhibitors of bacterial viability. [Related pubchem assays (depositor defined):AID435030, AID449728, AID449731, AID488942, AID488955, AID488956]; type: functional
# [2] = biological target: T1, High affinity choline transporter 1 (Homo sapiens, UniProt Q9GZV3); assay: CHT inhibitors, dose response, cell-based, 5-point CRC, membrane potential dye (AID 504840); type: functional
# T1 sequence (Q9GZV3 whole entry): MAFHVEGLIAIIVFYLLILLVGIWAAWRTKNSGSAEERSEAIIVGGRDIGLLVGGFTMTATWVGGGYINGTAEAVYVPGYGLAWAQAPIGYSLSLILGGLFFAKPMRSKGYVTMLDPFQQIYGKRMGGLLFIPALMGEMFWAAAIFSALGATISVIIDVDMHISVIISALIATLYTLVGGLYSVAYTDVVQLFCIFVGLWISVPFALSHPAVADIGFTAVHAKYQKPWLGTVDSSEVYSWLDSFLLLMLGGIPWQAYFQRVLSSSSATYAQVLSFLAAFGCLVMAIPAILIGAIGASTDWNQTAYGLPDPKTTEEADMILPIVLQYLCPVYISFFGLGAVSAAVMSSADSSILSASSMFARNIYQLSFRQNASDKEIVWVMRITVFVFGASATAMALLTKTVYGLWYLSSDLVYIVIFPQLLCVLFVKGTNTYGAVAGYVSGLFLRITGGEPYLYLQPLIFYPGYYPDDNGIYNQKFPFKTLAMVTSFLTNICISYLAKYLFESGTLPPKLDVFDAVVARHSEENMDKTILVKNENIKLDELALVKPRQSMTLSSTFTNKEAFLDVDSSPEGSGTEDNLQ
# [3] = NIH-3T3 fibroblast cytotoxicity, dose response, cytotoxicity control, cell-based, fluorescence, Alamar Blue, secondary assay (AID 2327); type: functional;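 note: NIH-3T3 mouse fibroblasts cultured with fluconazole at 8 µg/mL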
# [4] = insulin promoter down-regulators in MIN6 cells, imaging, high-content screening, mouse beta cells (AID 1628); type: functional
# [5] = cytotoxicity in MIN6 insulinoma cells, dose response, cytotoxicity control, cell-based, mouse insulinoma (AID 2122); type: functional;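 note: confirmatory high-throughput counterscreen run to flag cytotoxic compounds; mouse MIN-6 beta cells carrying an insulin promoter eGFP reporter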
# [6] = C. albicans growth with fluconazole, confirmation, fluorescence, retest (AID 2467); type: functional, cell-based
# [7] = THP-1 cell cytotoxicity, dose response, cytotoxicity control for non-replicating M. tuberculosis project (AID 489025); type: functional
# [8] = HepG2 cell cytotoxicity, dose response, cytotoxicity control for non-replicating M. tuberculosis project (AID 489018); type: functional; details: Mycobacterium tuberculosis
# cells = type: functional
# [9] = inhibitors of HIV Env-driven cell fusion, dose response, cherry-pick (AID 652057); type: functional, cell-based
# [10] = CEM21 lymphoblast cell cytotoxicity, dose response, cytotoxicity control for viral fusion inhibitor project, CellTiter-Glo luminescence, cherry-picked (AID 652042); type: functional, cell-based;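 note: potency for signal decrease meaning cytotoxicity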
# [11] = ZM109 Env clade C HIV-1 fusion inhibitors, dose response, HeLa effector, CEM target cells, luciferase, cherry-pick (AID 652058); type: functional, cell-based
# [12] = off-target signal loss in HeLa-CEM21 co-culture – HeLa F-luc CTL cells, cherry-picked, counter-screen for HIV-1 Env fusion inhibitor project, dose response (AID 652040); type: functional, cell-based;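 note: potency for signal decrease marking cytotoxic or nonspecific inhibition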
# [13] = inhibitors of clade B AD8 Env fusion, dose response, cell-based, cherry-pick (AID 652062); type: functional;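 note: luciferase signal from cell-cell fusion driven by HIV-1 clade B AD8 Env; potency is for inhibitors of fusion seen as a drop in luminescence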
# [14] = biological target: Eukaryotic translation initiation factor 4H (Homo sapiens, UniProt Q15056); assay: human eIF4H binding inhibitors, primary screen, translation initiation inhibitor project, biochemical, uHTS, fluorescence polarization (AID 2012)
# [15] = biological target: Polyadenylate-binding protein 1 (Homo sapiens, UniProt P11940); assay: PABP poly(A) RNA binding inhibitors, primary screen, biochemical, fluorescence polarization, uHTS (AID 2014)
# Chain of Polyadenylate-binding protein 1 (P11940 whole entry): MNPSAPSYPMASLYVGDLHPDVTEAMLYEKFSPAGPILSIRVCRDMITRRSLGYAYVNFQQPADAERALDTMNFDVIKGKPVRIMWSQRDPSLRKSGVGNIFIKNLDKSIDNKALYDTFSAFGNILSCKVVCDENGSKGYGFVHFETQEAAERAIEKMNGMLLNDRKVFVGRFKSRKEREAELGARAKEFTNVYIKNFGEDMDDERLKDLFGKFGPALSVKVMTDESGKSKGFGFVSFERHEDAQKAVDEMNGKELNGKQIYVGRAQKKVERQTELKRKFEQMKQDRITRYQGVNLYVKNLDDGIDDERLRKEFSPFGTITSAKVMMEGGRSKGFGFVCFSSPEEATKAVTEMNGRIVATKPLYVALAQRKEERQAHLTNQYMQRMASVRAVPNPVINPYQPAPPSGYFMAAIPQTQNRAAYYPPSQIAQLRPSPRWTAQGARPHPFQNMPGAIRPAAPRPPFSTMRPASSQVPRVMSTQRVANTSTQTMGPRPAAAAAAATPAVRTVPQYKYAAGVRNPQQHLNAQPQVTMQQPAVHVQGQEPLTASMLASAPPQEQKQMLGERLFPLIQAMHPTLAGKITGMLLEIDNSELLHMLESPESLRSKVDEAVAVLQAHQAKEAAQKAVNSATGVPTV
# [16] = biological target: Intestinal-type alkaline phosphatase (Mus musculus, UniProt P24822); assay: PubChem AID 488785; type: functional
# Chain of Intestinal-type alkaline phosphatase (Mus musculus, UniProt P24822) (P24822 whole entry): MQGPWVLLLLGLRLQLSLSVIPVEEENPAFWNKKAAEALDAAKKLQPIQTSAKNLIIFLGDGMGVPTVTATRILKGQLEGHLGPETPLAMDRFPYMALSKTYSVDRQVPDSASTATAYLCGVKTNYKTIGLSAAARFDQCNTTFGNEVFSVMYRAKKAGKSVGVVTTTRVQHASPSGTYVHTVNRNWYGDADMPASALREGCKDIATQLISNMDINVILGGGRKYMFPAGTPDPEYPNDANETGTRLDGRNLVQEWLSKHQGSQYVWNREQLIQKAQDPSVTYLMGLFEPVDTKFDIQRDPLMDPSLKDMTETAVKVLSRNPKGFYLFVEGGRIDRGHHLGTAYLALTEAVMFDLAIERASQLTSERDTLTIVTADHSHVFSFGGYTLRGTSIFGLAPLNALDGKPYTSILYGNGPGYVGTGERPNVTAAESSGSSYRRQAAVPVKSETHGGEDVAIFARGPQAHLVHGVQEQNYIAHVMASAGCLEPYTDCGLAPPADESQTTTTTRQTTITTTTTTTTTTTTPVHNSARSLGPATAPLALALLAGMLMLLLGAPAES
# [17] = biological target: T2, Alkaline phosphatase, tissue-nonspecific isozyme (Homo sapiens, UniProt P05186); assay: TNAP enzyme inhibition by screening hits, dose response, selectivity assay for mouse IAP inhibitor project, biochemical, human TNAP, uHTS hits (AID 488906); type: functional
# T2 sequence (P05186 whole entry): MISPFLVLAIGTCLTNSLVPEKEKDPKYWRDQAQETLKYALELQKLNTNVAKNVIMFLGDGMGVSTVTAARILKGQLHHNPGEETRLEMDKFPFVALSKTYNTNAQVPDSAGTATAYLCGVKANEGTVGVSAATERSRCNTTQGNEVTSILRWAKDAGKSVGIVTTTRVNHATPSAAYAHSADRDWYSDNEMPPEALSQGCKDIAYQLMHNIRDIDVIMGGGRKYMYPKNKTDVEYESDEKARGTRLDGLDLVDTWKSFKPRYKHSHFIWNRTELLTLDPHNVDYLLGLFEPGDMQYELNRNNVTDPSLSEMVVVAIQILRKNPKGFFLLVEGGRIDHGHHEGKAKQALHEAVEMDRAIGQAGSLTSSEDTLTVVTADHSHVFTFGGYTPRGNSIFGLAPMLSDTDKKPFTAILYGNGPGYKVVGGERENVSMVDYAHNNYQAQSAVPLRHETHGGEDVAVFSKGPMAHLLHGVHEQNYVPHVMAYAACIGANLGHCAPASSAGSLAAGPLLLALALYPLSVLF
# [18] = biological target: Intestinal-type alkaline phosphatase (Homo sapiens, UniProt P09923); assay: inhibition of human intestinal alkaline phosphatase – biochemical, dose response (AID 488876); type: functional
# Chain of Intestinal-type alkaline phosphatase (Homo sapiens, UniProt P09923) (P09923 whole entry): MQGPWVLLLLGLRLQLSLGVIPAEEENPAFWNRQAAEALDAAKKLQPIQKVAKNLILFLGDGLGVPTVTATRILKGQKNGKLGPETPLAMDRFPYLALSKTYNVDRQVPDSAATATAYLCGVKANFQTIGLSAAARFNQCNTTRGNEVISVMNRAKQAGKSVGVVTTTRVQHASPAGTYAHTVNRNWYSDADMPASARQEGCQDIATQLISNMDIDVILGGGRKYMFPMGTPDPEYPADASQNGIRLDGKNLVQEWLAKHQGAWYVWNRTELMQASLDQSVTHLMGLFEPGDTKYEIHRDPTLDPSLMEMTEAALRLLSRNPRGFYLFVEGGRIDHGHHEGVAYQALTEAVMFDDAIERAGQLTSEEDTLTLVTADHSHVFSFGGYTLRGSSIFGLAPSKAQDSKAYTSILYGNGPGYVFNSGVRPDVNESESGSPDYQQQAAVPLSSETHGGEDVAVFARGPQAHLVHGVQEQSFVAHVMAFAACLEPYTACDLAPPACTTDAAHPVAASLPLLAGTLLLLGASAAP
# Chain of Exodeoxyribonuclease V (P04993 whole entry): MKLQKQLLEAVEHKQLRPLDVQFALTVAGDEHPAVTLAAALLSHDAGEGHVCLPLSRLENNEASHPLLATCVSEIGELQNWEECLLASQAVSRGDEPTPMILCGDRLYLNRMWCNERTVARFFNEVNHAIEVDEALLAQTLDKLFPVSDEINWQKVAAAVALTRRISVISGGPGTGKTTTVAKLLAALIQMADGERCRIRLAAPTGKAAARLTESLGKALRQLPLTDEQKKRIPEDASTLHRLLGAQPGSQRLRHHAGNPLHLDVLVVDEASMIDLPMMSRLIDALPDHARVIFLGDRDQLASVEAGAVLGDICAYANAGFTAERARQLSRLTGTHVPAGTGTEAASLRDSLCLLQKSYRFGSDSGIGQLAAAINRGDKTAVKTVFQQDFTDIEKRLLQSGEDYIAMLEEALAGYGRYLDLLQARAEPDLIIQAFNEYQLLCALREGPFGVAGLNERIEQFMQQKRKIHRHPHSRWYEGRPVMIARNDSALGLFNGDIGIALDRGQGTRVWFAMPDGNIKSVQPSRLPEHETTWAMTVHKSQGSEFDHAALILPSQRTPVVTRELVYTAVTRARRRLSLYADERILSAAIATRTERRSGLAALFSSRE
# Chain of Exodeoxyribonuclease V (P07648 whole entry): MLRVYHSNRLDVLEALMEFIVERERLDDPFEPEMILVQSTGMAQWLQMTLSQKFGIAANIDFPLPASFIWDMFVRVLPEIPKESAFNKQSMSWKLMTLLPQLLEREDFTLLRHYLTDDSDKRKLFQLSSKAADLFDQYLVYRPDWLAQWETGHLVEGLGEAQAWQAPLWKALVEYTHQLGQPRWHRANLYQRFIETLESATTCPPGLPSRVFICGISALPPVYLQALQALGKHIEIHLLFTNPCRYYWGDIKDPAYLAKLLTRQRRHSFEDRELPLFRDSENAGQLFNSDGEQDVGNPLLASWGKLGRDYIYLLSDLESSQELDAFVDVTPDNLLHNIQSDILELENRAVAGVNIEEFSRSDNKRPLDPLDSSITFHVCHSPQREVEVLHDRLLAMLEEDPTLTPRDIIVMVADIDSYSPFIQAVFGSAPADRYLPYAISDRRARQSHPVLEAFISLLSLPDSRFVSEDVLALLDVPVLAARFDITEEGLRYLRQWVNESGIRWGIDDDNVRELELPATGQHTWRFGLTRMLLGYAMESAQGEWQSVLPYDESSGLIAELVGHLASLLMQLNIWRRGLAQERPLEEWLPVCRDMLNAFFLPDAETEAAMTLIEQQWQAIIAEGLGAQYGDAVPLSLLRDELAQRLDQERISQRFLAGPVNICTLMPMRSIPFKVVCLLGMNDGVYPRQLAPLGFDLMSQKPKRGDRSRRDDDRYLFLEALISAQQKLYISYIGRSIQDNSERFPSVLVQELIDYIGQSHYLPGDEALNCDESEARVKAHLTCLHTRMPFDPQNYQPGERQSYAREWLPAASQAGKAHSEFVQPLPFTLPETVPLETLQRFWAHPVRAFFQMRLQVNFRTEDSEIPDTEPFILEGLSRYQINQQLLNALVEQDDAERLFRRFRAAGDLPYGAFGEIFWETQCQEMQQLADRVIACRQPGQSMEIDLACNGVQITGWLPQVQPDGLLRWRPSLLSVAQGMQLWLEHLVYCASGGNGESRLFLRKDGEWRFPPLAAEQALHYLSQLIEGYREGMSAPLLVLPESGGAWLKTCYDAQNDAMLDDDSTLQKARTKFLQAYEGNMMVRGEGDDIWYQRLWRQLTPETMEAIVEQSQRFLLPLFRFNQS
# Chain of Exodeoxyribonuclease V (P08394 whole entry): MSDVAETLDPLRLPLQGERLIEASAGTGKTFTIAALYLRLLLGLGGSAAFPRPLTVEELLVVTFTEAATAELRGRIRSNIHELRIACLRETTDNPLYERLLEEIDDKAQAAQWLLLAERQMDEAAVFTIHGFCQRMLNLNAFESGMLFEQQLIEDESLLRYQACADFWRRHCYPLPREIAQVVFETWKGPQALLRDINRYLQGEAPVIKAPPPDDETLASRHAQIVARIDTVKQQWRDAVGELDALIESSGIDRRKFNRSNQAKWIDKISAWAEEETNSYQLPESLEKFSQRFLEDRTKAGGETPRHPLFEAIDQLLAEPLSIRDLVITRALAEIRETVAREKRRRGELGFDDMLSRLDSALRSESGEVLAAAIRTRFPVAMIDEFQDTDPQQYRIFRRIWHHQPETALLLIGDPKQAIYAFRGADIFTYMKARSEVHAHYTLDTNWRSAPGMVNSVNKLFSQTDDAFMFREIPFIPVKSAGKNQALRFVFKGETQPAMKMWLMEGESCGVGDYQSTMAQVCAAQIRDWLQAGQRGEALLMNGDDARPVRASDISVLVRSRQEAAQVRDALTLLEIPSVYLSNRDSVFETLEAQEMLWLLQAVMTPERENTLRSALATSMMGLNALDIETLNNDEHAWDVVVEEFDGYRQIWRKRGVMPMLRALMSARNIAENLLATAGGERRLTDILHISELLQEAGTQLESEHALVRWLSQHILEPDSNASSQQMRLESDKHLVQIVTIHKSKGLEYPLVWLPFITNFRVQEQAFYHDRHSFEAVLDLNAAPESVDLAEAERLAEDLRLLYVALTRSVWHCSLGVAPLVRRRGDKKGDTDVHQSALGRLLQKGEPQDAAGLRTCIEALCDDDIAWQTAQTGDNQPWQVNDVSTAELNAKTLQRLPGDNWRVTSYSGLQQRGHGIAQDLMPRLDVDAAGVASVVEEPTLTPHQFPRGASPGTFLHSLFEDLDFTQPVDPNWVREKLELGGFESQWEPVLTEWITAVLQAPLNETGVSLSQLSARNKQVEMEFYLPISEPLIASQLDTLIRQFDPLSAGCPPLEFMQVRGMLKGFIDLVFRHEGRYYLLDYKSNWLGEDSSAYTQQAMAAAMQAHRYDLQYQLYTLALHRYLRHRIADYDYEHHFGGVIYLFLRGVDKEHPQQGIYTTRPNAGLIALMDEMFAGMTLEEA
smiles,measurement,setting,value
Fc1ccc(Nc2nnc(C(F)(F)F)s2)cc1Cl,IC50,Exodeoxyribonuclease V,> 39.5 µM (inactive)
same,IC50,[1],96.8 µM (inactive)
same,IC50,[2],11 µM (active)
CC(C)[C@@H]1CC[C@@H](C)C[C@H]1OC(=O)C[n+]1cc(-c2ccc(Cl)cc2)n2c1CCCCC2,EC50,[3],23.8 µM (inconclusive)
same,IC50,[4],1.14 µM (active)
same,IC50,[5],1.16 µM (active)
same,EC50,[6],0.225 µM (active)
same,CC50,[7],4.52 µM (active)
same,CC50,[8],> 20 µM (active)
same,IC50,cells,6.86 µM (active)
same,AC50,[9],16.3 µM (active)
same,AC50,[10],8.93 µM (active)
same,AC50,[11],8.56 µM (active)
same,AC50,[12],37 µM (active)
same,AC50,[13],9.97 µM (active)
COc1cc(OC)c2c(c1O)OC(c1ccccc1)CC2=O (stereo not given),IC50,[14],48.6 µM (active)
same,IC50,[15],91.1 µM (active)
same,IC50,[16],21.8 µM (active)
same,IC50,[17],> 100 µM (inactive)
same,IC50,[18],> 100 µM (inactive)

# — ChEMBL document CHEMBL1201862, “PubChem BioAssay data set” (2004)
